Measured values reported in patent publication US20250129050A1, “SYNTHESIS OF A KIF18A INHIBITOR” (Amgen Inc., priority 2022, published 2025).
“Also recorded” adds a separate entry of the source.

Test: Dynamic Vapor Sorption (DVS) moisture sorption with pre and post DVS XRPD
Format: physicochemical
Conditions: after exposure to 80% relative humidity at 25° C. for 24 hours; hydrate
Experimental: Moisture sorption data were collected using a DVS Endeavour. A sample size of about 30 mg was used. The temperature was 25° C. The relative humidity (RH) was held to 80% for 24 hours. Mass was recorded at the beginning and end of the experiment. Stability and Hygroscopicity Features of Crystalline Compound 6a-I as shown by Pre and Post DVS XRPD Experiment: Crystalline Compound 6a-I was exposed to 80% relative humidity at 25° C. for 24 hours using a DVS Endeavor instrument. The mass was recorded at the beginning and end of the exposure. […] Dynamic Vapor Sorption (DVS): The crystalline Compound 6a-I can be characterized by a DVS moisture sorption profile.

## O=S(CCOCc1ccccc1)[O][Ca][O]S(=O)CCOCc1ccccc1 (stereo not shown) [Compound 6a-I, calcium 2-(benzyloxy)ethane-1-sulfinate 4/3 hydrate]
  crystalline form stability (XRPD pre DVS vs post DVS): no crystalline form change; also recorded: stable crystalline polymorph form
